Test results taken from patent US20210355109A1, “CRYSTAL FORM OF MALEATE OF TYROSINE KINASE INHIBITOR AND PREPARATION METHOD THEREFOR” (JIANGSU HENGRUI MEDICINE CO., LTD., priority 2018, published 2021).

Columns and labels:
Assay type in all cases: physicochemical
[1] = Influencing-factor stability of I crystal form and amorphous form, purity by HPLC (Agilent1200 DAD); settings: for stability after long-term storage (in words): high temperature, high humidity
Excerpt: The stability of the I crystal form of the compound represented by formula (I) was investigated. The purity of the crystal form was detected by Agilent1200 DAD high performance liquid chromatography system, and Waters symmetry C18, (250*4.6 mm, 5 μm) was used as the detection column, mobile phase: sodium dihydrogen phosphate/ACN/H2O, detection wavelength: 261 nm.

[2] = Influencing-factor stability of I and IV crystal forms, purity by HPLC (Thermo Ultimate3000DAD); settings: for crystal stability (in words): conditions of light, high temperature, and high humidity
Excerpt: The stability of the I and IV crystal form of the compound represented by formula (I) was investigated. The purity of the crystal forms was detected by Thermo Ultimate3000DAD high-performance liquid chromatography system, and Waters symmetry C18, (250*4.6 mm, 5 μm) was used as the detection chromatographic column, mobile phase: sodium dihydrogen phosphate/ACN/H2O, detection wavelength: 261 nm.

[3] = Solid properties / fluidity of crystal form

purity % ([1]; 40° C., day 0)	purity % ([1]; 40° C., day 5)	purity % ([1]; 40° C., day 10)	purity % ([1]; 40° C., day 30)	purity % ([1]; RH 75%, day 0)	purity % ([1]; RH 75%, day 5)	purity % ([1]; RH 75%, day 10)	purity % ([1]; RH 75%, day 30)	purity % ([1]; RH 90%, day 0)	purity % ([1]; RH 90%, day 5)	purity % ([1]; RH 90%, day 10)	purity % ([1]; RH 90%, day 30)	purity % ([1]; illumination, day 0)	purity % ([1]; illumination, day 5)	purity % ([1]; illumination, day 10)	purity % ([1]; illumination, day 30)	purity % ([2]; 40° C., day 0)	purity % ([2]; 40° C., day 5)	purity % ([2]; 40° C., day 10)	purity % ([2]; 40° C., day 30)	Structure (SMILES)	other results
99.56%	99.55%	99.51%	99.43%	99.56%	99.53%	99.53%	99.52%	99.56%	99.53%	99.54%	99.51%	99.56%	99.35%	99.29%	99.00%	99.83%	99.78%	99.77%	99.69%	CCOc1cc2ncc(C#N)c(Nc3ccc(OCc4ccccn4)c(Cl)c3)c2cc1NC(=O)/C=C/[C@H]1CCCN1C.O=C(O)/C=C\C(=O)O [I crystal form]	stability after long-term storage (in words) ([1]; illumination): good physical and chemical stability; purity % ([2]; 60° C., day 0): 99.83%; purity % ([2]; 60° C., day 5): 99.64%; purity % ([2]; 60° C., day 10): 99.51%; purity % ([2]; 60° C., day 30): 99.24%; purity % ([2]; RH 75%, day 0): 99.83%; purity % ([2]; RH 75%, day 5): 99.81%; purity % ([2]; RH 75%, day 10): 99.81%; purity % ([2]; RH 75%, day 30): 99.68%; purity % ([2]; RH 90%, day 0): 99.83%; purity % ([2]; RH 90%, day 5): 99.81%; purity % ([2]; RH 90%, day 10): 99.82%; purity % ([2]; RH 90%, day 30): 99.82%; crystal stability (in words) [2]: good crystal stability; purity % ([2]; illumination, day 0): 99.83%; purity % ([2]; illumination, day 5): 99.68%; purity % ([2]; illumination, day 10): 99.59%; purity % ([2]; illumination, day 30): 99.29%
99.31%	99.21%	99.13%	98.57%	99.31%	99.35%	99.33%	99.09%	99.31%	95.76%	94.05%	85.09%	99.31%	98.04%	96.65%	93.48%					CCOc1cc2ncc(C#N)c(Nc3ccc(OCc4ccccn4)c(Cl)c3)c2cc1NC(=O)/C=C/[C@H]1CCCN1C.O=C(O)/C=C\C(=O)O [amorphous, reference compound]	stability after long-term storage (in words) ([1]; illumination, listed as amorphous form): poor stability
																				CCOc1cc2ncc(C#N)c(Nc3ccc(OCc4ccccn4)c(Cl)c3)c2cc1NC(=O)/C=C/[C@H]1CCCN1C.O=C(O)/C=C\C(=O)O [II crystal form]	fluidity [3]: poor
																99.94%	99.92%	99.93%	99.85%	CCOc1cc2ncc(C#N)c(Nc3ccc(OCc4ccccn4)c(Cl)c3)c2cc1NC(=O)/C=C/[C@H]1CCCN1C.O=C(O)/C=C\C(=O)O [IV crystal form]	purity % ([2]; 60° C., day 0): 99.94%; purity % ([2]; 60° C., day 5): 99.83%; purity % ([2]; 60° C., day 10): 99.77%; purity % ([2]; 60° C., day 30): 99.50%; purity % ([2]; RH 75%, day 0): 99.94%; purity % ([2]; RH 75%, day 5): 99.93%; purity % ([2]; RH 75%, day 10): 99.94%; purity % ([2]; RH 75%, day 30): 99.94%; purity % ([2]; RH 90%, day 0): 99.94%; purity % ([2]; RH 90%, day 5): 99.93%; purity % ([2]; RH 90%, day 10): 99.94%; purity % ([2]; RH 90%, day 30): 99.93%; crystal stability (in words) [2]: good crystal stability; purity % ([2]; illumination, day 0): 99.94%; purity % ([2]; illumination, day 5): 99.92%; purity % ([2]; illumination, day 10): 99.92%; purity % ([2]; illumination, day 30): 99.85%
